According to ChEMBL document CHEMBL1135267 (Bioorg Med Chem Lett, 2002):

Each compound was assayed against T1, Aromatase (Homo sapiens, UniProt P11511).
T1 sequence (P11511 whole entry): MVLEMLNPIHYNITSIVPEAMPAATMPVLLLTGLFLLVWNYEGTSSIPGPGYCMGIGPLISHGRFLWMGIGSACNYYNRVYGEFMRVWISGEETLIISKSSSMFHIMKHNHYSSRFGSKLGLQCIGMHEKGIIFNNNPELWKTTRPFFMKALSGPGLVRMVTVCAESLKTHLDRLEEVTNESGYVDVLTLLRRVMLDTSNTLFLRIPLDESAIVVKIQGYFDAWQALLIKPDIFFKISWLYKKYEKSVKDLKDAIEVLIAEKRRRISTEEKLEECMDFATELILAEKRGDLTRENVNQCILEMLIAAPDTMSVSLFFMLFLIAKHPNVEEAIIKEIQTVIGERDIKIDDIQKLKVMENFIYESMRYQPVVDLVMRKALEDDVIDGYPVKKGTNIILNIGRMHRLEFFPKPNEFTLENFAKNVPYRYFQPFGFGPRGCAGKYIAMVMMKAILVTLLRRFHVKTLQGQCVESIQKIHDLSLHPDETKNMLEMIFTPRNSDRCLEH
With `COc1ccc2c(c1)OC(c1ccccc1)/C(=C\c1ccncc1)C2=O` (centres undefined) the IC50 was 620 nM.
`O=C1/C(=C/c2ccncc2)C(c2ccccc2)Oc2ccccc21` (centres undefined) gave an IC50 of 800 nM.
For `COc1ccc2c(c1)OC(c1ccccc1)/C(=C/c1ccncc1)C2=O` (mixture of isomers), the IC50 was 1600 nM.
`O=C1/C(=C\c2ccncc2)C(c2ccccc2)Oc2ccccc21` (mixture of isomers) showed an IC50 of 3300 nM.
